A value given as a limit tells only on which side of the number the result lay.

Format in all cases: cell-based
For experiment [1], the target named is T1, Peroxisome proliferator-activated receptor gamma (Homo sapiens, UniProt P37231).
T1 sequence (P37231 whole entry): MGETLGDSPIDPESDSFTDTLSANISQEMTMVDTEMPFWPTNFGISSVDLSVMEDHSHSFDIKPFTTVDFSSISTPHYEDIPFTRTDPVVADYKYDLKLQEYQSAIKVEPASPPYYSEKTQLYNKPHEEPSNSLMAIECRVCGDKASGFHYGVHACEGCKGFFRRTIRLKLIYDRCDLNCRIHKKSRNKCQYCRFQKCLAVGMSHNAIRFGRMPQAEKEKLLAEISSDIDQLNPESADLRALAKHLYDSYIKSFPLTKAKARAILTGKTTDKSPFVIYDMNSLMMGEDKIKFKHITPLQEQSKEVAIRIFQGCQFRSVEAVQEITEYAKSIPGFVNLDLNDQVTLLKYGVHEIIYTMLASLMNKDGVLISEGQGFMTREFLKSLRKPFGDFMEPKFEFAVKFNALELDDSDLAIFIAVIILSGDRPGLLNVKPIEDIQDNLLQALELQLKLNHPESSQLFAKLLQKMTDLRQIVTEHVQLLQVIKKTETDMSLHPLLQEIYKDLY
The experiment can be described thus: Agonist activity at human PPARgamma transfected in African green monkey COS-7 cells co-transfected with pGL4.35 and pBIND reporter gene plasmid assessed as receptor transactivation incubated for 16 hrs by luciferase reporter gene assay.

Experiment [2] deals with T2, Peroxisome proliferator-activated receptor delta (Homo sapiens, UniProt Q03181).
T2 sequence (Q03181 whole entry): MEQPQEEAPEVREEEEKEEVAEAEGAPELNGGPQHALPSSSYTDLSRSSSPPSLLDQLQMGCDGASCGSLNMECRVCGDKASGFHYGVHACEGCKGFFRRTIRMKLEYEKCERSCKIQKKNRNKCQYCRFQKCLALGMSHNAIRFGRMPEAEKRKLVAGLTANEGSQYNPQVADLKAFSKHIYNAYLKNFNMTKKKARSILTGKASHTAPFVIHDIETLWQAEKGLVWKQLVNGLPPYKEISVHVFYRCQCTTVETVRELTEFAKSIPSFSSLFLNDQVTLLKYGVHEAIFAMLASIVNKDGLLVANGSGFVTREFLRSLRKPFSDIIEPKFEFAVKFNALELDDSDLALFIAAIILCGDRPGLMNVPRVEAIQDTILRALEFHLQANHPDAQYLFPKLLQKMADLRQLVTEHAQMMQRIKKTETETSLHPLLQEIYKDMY
Put plainly: Agonist activity at human PPARdelta transfected in African green monkey COS-7 cells co-transfected with pGL4.35 and pBIND reporter gene plasmid assessed as receptor transactivation incubated for 16 hrs by luciferase reporter gene assay.

Experiment [3] deals with T3, Peroxisome proliferator-activated receptor alpha (Homo sapiens, UniProt Q07869).
T3 sequence (Q07869 whole entry): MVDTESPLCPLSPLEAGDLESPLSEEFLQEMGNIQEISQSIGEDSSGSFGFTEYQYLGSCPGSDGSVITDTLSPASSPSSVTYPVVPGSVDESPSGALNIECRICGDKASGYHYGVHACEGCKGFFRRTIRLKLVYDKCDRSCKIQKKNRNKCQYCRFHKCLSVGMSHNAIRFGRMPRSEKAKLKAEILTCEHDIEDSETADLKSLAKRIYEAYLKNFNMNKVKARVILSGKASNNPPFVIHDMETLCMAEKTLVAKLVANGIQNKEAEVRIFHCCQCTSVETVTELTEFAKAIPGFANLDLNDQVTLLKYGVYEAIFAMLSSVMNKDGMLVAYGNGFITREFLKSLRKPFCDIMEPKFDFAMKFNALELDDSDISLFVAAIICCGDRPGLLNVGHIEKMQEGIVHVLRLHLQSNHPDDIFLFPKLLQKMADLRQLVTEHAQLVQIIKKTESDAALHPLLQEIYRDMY
Put plainly: Agonist activity at human PPARalpha transfected in African green monkey COS-7 cells co-transfected with pGL4.35 and pBIND reporter gene plasmid assessed as receptor transactivation incubated for 16 hrs by luciferase reporter gene assay.

In the case of `CC(C)(Oc1ccc(CCNC(=O)c2ccc(Cl)cc2)cc1)C(=O)O` [BEZAFIBRATE], the values for the EC50 in experiment [1] and in experiment [2] were 13.2 µM and 49.7 µM, respectively. In the case of `Cc1cc(CN2CCN(c3ccc(C(F)(F)F)cc3)CC2)cc(C)c1OC(C)(C)C(=O)O`, the EC50 is greater than 10 µM in experiment [1] and 0.8 µM in experiment [2]. With `CC(C)(Oc1ccc(CN2CCN(c3ccc(C(F)(F)F)cc3)CC2)cc1)C(=O)O`, the EC50 in experiment [1] is greater than 10 µM; in experiment [2], 4.4 µM. As for `Cc1cc(CN2CCN(c3ccc(C(F)(F)F)nc3)CC2)cc(C)c1OC(C)(C)C(=O)O`, the EC50 in experiment [1] was greater than 10 µM. Turning to `O=C(O)CCCc1cc2cc(Cl)ccc2n1S(=O)(=O)c1ccc2ncsc2c1` [LANIFIBRANOR], the EC50 in experiment [3] worked out at 3.2 µM; in experiment [1], 0.6 µM; in experiment [2] it was 2.9 µM.

Take `Cc1cc(CN2CCN(c3ncc(C(F)(F)F)cn3)CC2)cc(C)c1OC(C)(C)C(=O)O`: in experiment [2], the EC50 turned out to be 0.8 µM. In the case of `Cc1cc(CN2CCN(Cc3ccc(C(F)(F)F)cn3)CC2)cc(C)c1OC(C)(C)C(=O)O`, the concentration giving a half-maximal response (EC50) stood at 8.6 µM in experiment [1] and 2 µM in experiment [2]. As for `Cc1cc(CN2CCN(c3ccc(F)cn3)CC2)cc(C)c1OC(C)(C)C(=O)O`, the EC50 in experiment [1] was 7.2 µM; in experiment [2], greater than 10 µM. With `Cc1c(CN2CCN(c3ccc(C(F)(F)F)cc3)CC2)ccc(OC(C)(C)C(=O)O)c1C`, the 50% effective concentration (EC50) in experiment [1] is greater than 10 µM. On the same count and under the same terms, for `Cc1cc(CN2CCN(Cc3ccc(C(F)(F)F)nc3)CC2)cc(C)c1OC(C)(C)C(=O)O` the value was greater than 10 µM.

As to `Cc1cc(CN2CCN(c3ccc(C(F)(F)F)cc3)CC2)ccc1OC(C)(C)C(=O)O`, the EC50 in experiment [1] is greater than 10 µM.

Take `Cc1ccc(N2CCN(Cc3cc(C)c(OC(C)(C)C(=O)O)c(C)c3)CC2)nc1`: in experiment [2], the EC50 was greater than 10 µM. Same read-out and setting: for `Cc1cc(CN2CCN(c3ccccn3)CC2)cc(C)c1OC(C)(C)C(=O)O` the value was greater than 10 µM. Consider `Cc1cc(OC(C)(C)C(=O)O)ccc1CN1CCN(c2ccc(C(F)(F)F)cc2)CC1`, for which the EC50 in experiment [3] is greater than 10 µM. Regarding `Cc1cc(CN2CCN(c3ncccc3C(F)(F)F)CC2)cc(C)c1OC(C)(C)C(=O)O`, the EC50 in experiment [2] is greater than 10 µM. For `Cc1cc(CN2CCN(c3cnc(C(F)(F)F)nc3)CC2)cc(C)c1OC(C)(C)C(=O)O`, the figures for the EC50 in experiment [1] and in experiment [2] were greater than 10 µM and 3.2 µM, respectively.

Source of the values: ChEMBL document CHEMBL5500338, “Design, synthesis, and biological evaluation of piperazine derivatives as pan-PPARs agonists for the treatment of liver fibrosis” (Eur J Med Chem, 2024).
